Test results reported in BigSolDB 2.1.

Oc1cc(Cl)ccc1Oc1ccc(Cl)cc1Cl
solubility (mole fraction)
Conditions	in chloroform	in ethanol	in isopropyl myristate	in n-heptane	in n-octanol
293.15 K	0.33	0.332	0.0422	0.0156	0.0089
298.15 K	0.412	0.449	0.0475	0.0286	0.025
303.15 K	0.501	0.57	0.0527	0.0421	0.0785
308.15 K	0.561	0.654	0.0563	0.0605	0.157
313.15 K	0.633	0.751	0.0594	0.0806	0.285
